The record followed here is patent US20210292680A1, “MULTIFUNCTIONAL AROMATIC ALCOHOLS FOR PERSONAL CARE, HOME CARE AND INDUSTRIAL AND INSTITUTIONAL COMPOSITIONS” (EMERALD KALAMA CHEMICAL, LLC, priority 2018, published 2021).

A short description of data set [1]: Shear ramp, aqueous solution (viscosity). Format: physicochemical. As to conditions: hand dish wash. As for the experimental part: Shear Ramp aqueous solution: The 40 mm cone and plate geometry was used on an AR2000ex rheometer at 25° C. A gap of 29 μm was used. The shear was ramped from 0 s^−1 to 2000 s^−1 over six minutes. Shear rate is expressed in s^−1 or 1/s. Viscosity readings are expressed in Pa·s.
At 0.5 wt. %, the low shear viscosity increased roughly 36% over the control, while high shear viscosity increased roughly 43%. (Results not shown.)
R=4 Aromatic Alcohols. Similarly, viscosity modifying behavior is observed in a hand dish wash aqueous surfactant solution using an aromatic alcohol, where R=4 carbons (2-methyl-3-phenylpropanol). […] For 0.5 wt. % aromatic alcohol, the low shear viscosity increased 110% over the control, while high shear viscosity increased approximately 37%. At 1.0 wt. % aromatic alcohol, the viscosity profile changed, yielding increases in low and high shear viscosity of 56% and 94%, respectively.

The next data set in a line: Time to dissolve. Format: physicochemical. The settings on record: water with 1 wt. % aromatic alcohol. As for the experimental part:
Time to dissolve: Aromatic alcohol, 1% by weight, was added to deionized water to make 500 mL of solution. Stirring was started at 300 rpm. Test ingredient was added to both a 500 mL control deionized water and the 500 mL aromatic alcohol solution as a stopwatch timer was started. The timer was stopped when solution was completely clear and/or no particles of the test ingredient were visible in either sample. This is noted as the “dissolution time”, or time to dissolve. Aromatic alcohols can help solubilize hard-to-dissolve formulation ingredients more quickly and/or without the use of heat. The addition of 1.0 wt. % aromatic alcohol decreased the dissolution time of several common, hard-to-dissolve ingredients as shown in Table 1 below. Table 1 reflects the time to completely dissolve ingredients in water (Control) or water with 1 wt. % aromatic alcohol (R=3 denotes 3-phenylpropanol; R=4 denotes 2-methyl-3-phenylpropanol).

The nature of data set [2]: Process defoaming evaluation (modified ASTM E2407-04). As to conditions: 0.4 wt. % aromatic alcohol; 2.0 wt. % BioSoft N1-7 solution. The procedure: Defoaming evaluation: Process defoaming was tested using a modified ASTM method (E2407-04 (2015) Standard Test Method for Effectiveness of Defoaming Agents). 250 mL of a 2.0 wt. % surfactant solution was blended at the highest speed setting for 30 seconds, then let sit for 3 minutes. The initial foam height is measured, and then 0.4 wt. % defoamer is dropped onto the surface of the foam. The blender is turned on low speed and the solution is mixed for 1 minute. Foam height is re-measured after an additional five minutes of sitting.
Process defoaming was tested using a modified ASTM method (E2407-04 (2015) Standard Test Method for Effectiveness of Defoaming Agents) to assess surfactants and determine if there was a relationship between foam destabilization and surfactant type. Two different surfactant solutions were tested. 2.0 wt. % surfactant solutions were prepared as controls using BioSoft® N1-7 and SLES. Thereafter, 0.4 wt. % aromatic alcohols (R=3 and R=4) were added to each surfactant solution for comparison to the controls. After agitation to generate foam, the percent of initial foam volume loss was far less for the control (without aromatic alcohols).

Data set [3] in a line: Shear ramp, oil-in-water emulsion (viscosity). The class given is physicochemical. As to conditions: Vanicream skin lotion, concentrations up to 0.5 wt. % aromatic alcohol, 25° C. As for the experimental part:
Shear Ramp oil-in-water emulsion: A 25 mm parallel plate geometry was used on an AR2000ex rheometer at 25° C. A gap of 600 μm was used. The shear was ramped from 0 s^−1 to 100 s^−1 over one minute. Viscosity readings are expressed in Pa·s.
R=3 Aromatic Alcohol. An R=3 aromatic alcohol, i.e., 3-phenylpropanol, was tested in a commercial oil-in-water emulsion, i.e., Vanicream® skin lotion, at 0.1 wt. %, 0.25 wt. % and 0.5 wt. % addition and compared to a control (without aromatic alcohol). […] The low shear (at 10 s^−1) viscosity was increased 68% over the control, while high shear viscosity (at 70 s^−1) increased roughly 100% (FIG. 1). The increase in high and low shear viscosity achieved desirable rheological traits such as richness, creaminess, and enhanced texture and skin feel in this end use personal care product with the addition of the aromatic alcohol. This unexpected result allows personal care and home care formulators, among others, to reduce or eliminate use of separate rheology modifiers to manipulate the viscosity of the final product.

Data set [4] is described as follows: Formulation stability of general purpose cleaner on storage. The class given is physicochemical. As to conditions: 0.5 wt. % aromatic alcohol; pH 7; 7 days at 22° C. From the text: Rapid and complete dissolution of raw materials into aqueous solutions can prevent problems with solution instability over time. For example, a general purpose cleaner containing sodium coco fatty alcohol sulfate and 0.1 wt. % of either hydroxyethyl cellulose or xanthan gum (Table 2) becomes unstable over time across a range of pH values.
Panel (b) of FIG. 10 compares a general purpose cleaner containing hydroxyethyl cellulose at pH 7 with (right side of panel) and without (left side of panel) the use of 0.5 wt. % aromatic alcohol, stored at room temperature for one week, then shaken to disperse precipitants. Panel (c) of FIG. 10 compares a general purpose cleaner containing xanthan gum at pH 5 with (right side of panel) and without (left side of panel) the use of 0.5 wt. % aromatic alcohol (right,) stored at room temperature for one week, then shaken to disperse precipitants.
Similar observations were made with formulations of a general purpose cleaner in the absence of hydroxyethyl cellulose or xanthan gum but containing sodium coco fatty alcohol sulfate surfactant (FIG. 11). FIG. 11 compares a sample of a general purpose cleaner at pH 7 with and without 0.5 wt. % aromatic alcohol (R=3, 3-phenylpropanol). […]

The nature of data set [5]: Final product foam stability (Blender Foam Volume/Drainage method). As to conditions: 0.5 wt. % aromatic alcohol incorporated into products. As for the experimental part:
Final product foam stability was tested using Blender Foam Volume/Drainage method published by Henkel Corp. 1981.
In the foam loss evaluation above, foam destabilization occurred at the time of addition (with mixing) of the aromatic alcohol. Further testing was performed to determine if the foaming ability of final products would be negatively impacted if aromatic alcohols were added to the formulations during the production process. A variety of commercial products were selected for testing, and 0.5 wt. % of aromatic alcohol (R=3, 3-phenylpropanol) was added to each. […] Foam stability of these commercial products was not reduced by the addition of aromatic alcohol.

Where [6] appears, read: Coco fatty alcohol sulfate 2.0 wt. %.

SMILES strings stand for the structures.

On to `CC(CO)Cc1ccccc1` (stereo not shown) [2-methyl-3-phenylpropanol], for which the “high shear viscosity increase over the control” value is “approximately 37%” in data set [1] (0.5 wt. % aromatic alcohol) and 94% in data set [1] (1.0 wt. % aromatic alcohol). Moreover, the “low shear viscosity increase over the control” value came to 110% in data set [1] (0.5 wt. % aromatic alcohol) and 56% in data set [1] (1.0 wt. % aromatic alcohol). In addition, the “Time to Dissolve at 22° C.” value in “Time to dissolve” (1,2-octanediol 1.0 wt. %) stood at 7.8 min; in “Time to dissolve” (setting [6]), 3.5 min. Moreover, the “foam destabilization (foam loss, % of initial foam volume)” value in data set [2] was “significantly destabilized foam”.

In the case of `OCCCc1ccccc1` [3-phenylpropanol], the “high shear viscosity increase over the control” value is given as “roughly 43%” in data set [1] (0.5 wt. % aromatic alcohol) and “roughly 100%” in data set [3] (at 70 s^-1). For the same compound, the “low shear viscosity increase over the control” value was “roughly 36%” in data set [1] (0.5 wt. % aromatic alcohol) and 68% in data set [3] (at 10 s^-1). Moreover, the “Time to Dissolve at 22° C.” value amounted to 8.1 min in “Time to dissolve” (1,2-octanediol 1.0 wt. %) and 4.0 min in “Time to dissolve” (setting [6]). Moreover, in data set [2], the “foam destabilization (foam loss, % of initial foam volume)” value is reported as “significantly destabilized foam”. The “homogeneity of general purpose cleaner without hydroxyethyl cellulose or xanthan gum, containing coco fatty alcohol sulfate” value in data set [4] is “remained homogeneous”. For the same compound, the “foam stability of commercial products” value in data set [5] is “not reduced”.
